In the assay the target is T1, Aryl hydrocarbon receptor (Mus musculus, UniProt P30561).
T1 sequence (P30561 whole entry): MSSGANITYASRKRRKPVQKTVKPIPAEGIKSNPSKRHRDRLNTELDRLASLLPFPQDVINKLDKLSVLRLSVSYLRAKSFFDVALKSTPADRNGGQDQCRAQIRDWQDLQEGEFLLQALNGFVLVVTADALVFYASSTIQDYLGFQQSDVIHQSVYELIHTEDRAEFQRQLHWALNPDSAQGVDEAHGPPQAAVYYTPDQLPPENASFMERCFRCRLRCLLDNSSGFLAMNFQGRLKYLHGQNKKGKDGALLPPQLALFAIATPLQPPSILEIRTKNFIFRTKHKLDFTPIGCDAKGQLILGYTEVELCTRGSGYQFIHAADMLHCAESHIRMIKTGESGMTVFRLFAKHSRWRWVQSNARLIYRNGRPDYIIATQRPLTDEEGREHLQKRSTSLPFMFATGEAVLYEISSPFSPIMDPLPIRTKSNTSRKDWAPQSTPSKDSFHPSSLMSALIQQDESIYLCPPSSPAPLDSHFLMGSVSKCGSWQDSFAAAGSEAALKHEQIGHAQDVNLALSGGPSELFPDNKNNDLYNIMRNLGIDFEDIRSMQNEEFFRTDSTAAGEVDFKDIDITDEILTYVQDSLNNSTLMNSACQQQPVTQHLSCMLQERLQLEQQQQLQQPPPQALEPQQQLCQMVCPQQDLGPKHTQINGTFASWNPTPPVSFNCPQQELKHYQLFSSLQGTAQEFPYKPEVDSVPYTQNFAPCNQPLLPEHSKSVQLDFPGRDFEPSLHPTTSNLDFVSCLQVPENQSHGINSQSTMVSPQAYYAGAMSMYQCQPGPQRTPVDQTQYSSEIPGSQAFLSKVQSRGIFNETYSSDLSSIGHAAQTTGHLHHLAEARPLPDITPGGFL
Put plainly: Binding Assay. The conditions noted are these: pH 7.5; 0 °C. On the procedure:
The equilibrium dissocation constants, KD values for the photoaffinity ligands were determined by a competitive binding assay.

Here are results for eight compounds from BindingDB's records for PubMed 3009454 (University of Wisconsin, 1986).

Regarding `[N-]=[N+]=Nc1ccc(C(=O)NCc2c(Cl)c(Cl)cc3c2Oc2cc(Cl)c(Cl)cc2O3)cc1` [Photoaffinity ligand, 6], the Kd was 8.1 nM.
For `[N-]=[N+]=Nc1ccc(NCCCCCC(=O)NCc2c(Cl)c(Cl)cc3c2Oc2cc(Cl)c(Cl)cc2O3)c([N+](=O)[O-])c1` [Photoaffinity ligand, 8], the dissociation constant (Kd) turned out to be 11 nM.
The same measure for `[N-]=[N+]=Nc1cc(Cl)cc2c1Oc1cc(Cl)c(Cl)cc1O2` [Photoaffinity ligand, 1]: 0.44 nM; for `[N-]=[N+]=Nc1c(I)c(Cl)cc2c1Oc1cc(Cl)c(Cl)cc1O2` [Photoaffinity ligand, 2]: 2.1 nM.
Take `[N-]=[N+]=Nc1ccc(C(=O)NCc2c(Cl)c(Cl)cc3c2Oc2cc(Cl)c(Cl)cc2O3)c(O)c1` [Photoaffinity ligand, 7]: binding was put at a Kd of 113 nM.
`[N-]=[N+]=Nc1cc2c(cc1I)Oc1cc(Br)c(Br)cc1O2` [Photoaffinity ligand, 4] registered a Kd of 0.76 nM.
As to `[N-]=[N+]=Nc1ccc([N+](=O)[O-])c(C(=O)NCc2c(Cl)c(Cl)cc3c2Oc2cc(Cl)c(Cl)cc2O3)c1` [Photoaffinity ligand, 5], the affinity, expressed as Kd, was 13 nM.
In turn, `[N-]=[N+]=Nc1cc2c(cc1Cl)Oc1cc(Cl)c(Cl)cc1O2` [Photoaffinity ligand, 3] had a dissociation constant Kd of 0.49 nM.

For orientation: Kd means the free concentration of one partner at which half of the binding sites on the other are occupied at equilibrium, for simple one-to-one binding.
